We go through 3 molecules from patent US6548488B2, “Composition comprising camptothecin or a camptothecin derivative and an alkylating agent for the treatment of cancer” (priority 2000, dated 2003).

SMILES strings stand for the structures. Like-named read-outs stand apart in the source and are kept apart here. Marks after values point to notes of the source that are not given here.

The subject of one series is P388/CPT. Put plainly: Chemosensitivity of camptothecin-resistant i.p. P388/CPT leukemia, increase in life span. The class given is in vivo, mice. Conditions: for Comment: response of P388/CPT. The method, then: Cross-resistance was measured in murine leukemia cell lines. P388/CPT is a camptothecin-resistant leukemia that was established in vitro (Biochem. Pharmacol., 45: 339 (1993) and maintained in vivo by i.p. passages in DBA2 female mice. The chemosensitivity of i.p. P388/CPT was evaluated with i.v. P388 sensitive reference drugs with different mechanisms of action. Antitumor efficacy was determined at the highest non-toxic dose as percent increase in life span (ILS), where:
ILS=100×[(median day of death (MDD) of treated mice)−(MDD control mice)]÷(MDD control mice)
A minimal level of activity equals an ILS of greater than 26%. […] Table III tabulates the results from this study.

The subject of series [1] is mammary adenocarcinoma MA16/C/sp. Here is the method:
(§1) This efficacy may be quantified, for example by the log10 cell kill, which is determined by the following formula:
(§2) log10 cell kill=T-C(days)/3.32×Td
(§3) in which T-C represents the time taken for the cells to grow, which is the mean time in days for the tumors of the treated group (T) to reach a predetermined value (1 g for example) and the tumors of the control group (C) to reach the same value, and Td represents the time in days needed for the volume of the tumor in the control group to double (T. H. Corbett et al., Cancer, 40: 2660-2680 (1977); F. M. Schabel et al., Cancer Drug Development, Part B, Methods in Cancer Research, 17: 3-51, New York, Academic Press Inc. (1979)). A product is considered to be active if the log10 cell kill is greater than or equal to 0.7. A product is considered to be very active if the log10 cell kill is greater than 2.8.
The effect of the combination of CPT-11 and cyclophosphamide was evaluated in a three arn study in mice bearing mammary adenocarcinoma MA16/C/sp. In the first arm, four dose levels of CPT-11 were given orally on days three through seven. In the second arm, five dose levels of cyclophosphamide were given intravenously on days three, five and seven. In the combination third arm, eight dosage levels of CPT-11 were administered orally on days three through seven, with administration of eight dosage levels of cyclophosphamide intravenously on days three, five and seven. This third arm illustrated an example of semi-simultaneous administration.

The test system of a further series is MA16/C, sc. The method, then: as §1, §2, §3
The effectiveness of irinotecan combination chemotherapy methods were tested in a dose response study in a murine tumor model. Three arms were evaluated for tolerance and efficacy. Tolerance was measured by mortality, body weight loss at nadir, host recovery time, and combination toxicity index. Efficacy end points for solid tumor models were tumor growth delay (T/C), log10 cell kill (LCK, defined above), tumor regressions (i.e., complete remission (CR),or partial remission (PR)). For non-solid tumors, such as leukemia, efficacy was measured as the increase in life span (ILS).
Combination toxicity index (CTI) was calculated as the sum of the fraction of LD10's for each agent used in each combination (Cancer Treatment Reports, 66(5): 1187-1200 (1982)). The LD10 for the single agent was obtained by plotting the toxicity of that agent and the dosage in mg/kg as a log probit graph. Subsequently, the CTI LD10 was obtained by plotting as a log probit graph the observed lethality and the corresponding CTI calculated as the sum of the fraction of the LD10 of each single agent. When the CTI equals one, only 50% of the LD10's of each agent can be used in combination without additional toxicity, and when the CTI equals two, 100% of the LD10's of each agent can be used in combination without additional toxicity.

Another series deals with P388. In kind it is in vivo, mice. Conditions: for %ILS: highest non-toxic dose.
Series [2] is described as follows: Tolerance of oral vs i.v. irinotecan in tumor bearing mice. The class given is in vivo. Particulars: both methods of administration (oral and i.v.). The method, then:
(§4) Three arms were evaluated for tolerance and efficacy.

Another series deals with C26. The experiment in a line: Oral vs i.v. irinotecan, C26 tumor in BALB/c mice. Particulars: for LCK: optimal total dose. The class given is in vivo. Here is the method: as §2, §4
(§5) The optimal total dose for oral and intravenous administration routes for irinotecan alone in various murine models is indicated in Table II.

Another series deals with GOS. Put plainly: Oral vs i.v. irinotecan, GOS tumor in B6D2F1 mice. In kind it is in vivo. Particulars: for LCK: optimal total dose. Here is the method:
as §2, §4, §5

In another series the test system is MA16/C. The experiment in a line: Oral vs i.v. irinotecan, MA16/C tumor in C3H/HeN mice. The class given is in vivo. Conditions: for Optimal Total Dose: days 5-9; for LCK: days 5-9, optimal total dose. The method, then:
as §2, §4, §5

For another series, the system named is C51. The experiment in a line: Oral vs i.v. irinotecan, C51 tumor in BALB/c mice. Conditions: days 5, 7, 9, 13, 15, twice daily; for LCK: optimal total dose. The class given is in vivo. The method, then: as §2, §4, §5
The subject of a further series is P03. Put plainly: Oral vs i.v. irinotecan, P03 tumor in B6D2F1 mice. Conditions: twice daily; for LCK: optimal total dose. In kind it is in vivo. Here is the method:
as §2, §4, §5

The mark [3] stands for this setting: CPA i.v. 37.0 mg/kg/adm, days 3, 5, 7.
[4] abbreviates: CPA i.v. 60.0 mg/kg/adm, days 3, 5, 7.
The mark [5] stands for this setting: CPA i.v. 97.0 mg/kg/adm, days 3, 5, 7 (HNTD).
Where [6] appears, read: CPA i.v. 156.0 mg/kg/adm, days 3, 5, 7.
[7] abbreviates: CPT-11 p.o. 25.0 mg/kg/adm, days 3-7.
[8] abbreviates: CPT-11 p.o. 40.0 mg/kg/adm, days 3-7 (HNTD).

Turning to `O=P1(N(CCCl)CCCl)NCCCO1` (centres unmarked) [CPA, cyclophosphamide], in the series on P388/CPT (i.v., highest non-toxic dose), the “%ILS” value came out at 153% and the TFS is reported as 1/5. For the same molecule, the Comment entry with P388/CPT (i.v., listed as Cyclophosphamide) is recorded as “sensitive”. Moreover, in the series on P388/CPT (i.v., listed as cyclophosphamide), the Comment entry is on record as “very sensitive”. Also, the Comments result in series [1] (CPA i.v. 23.0 mg/kg/adm, days 3, 5, 7) is reported as “Inactive”. Besides, in [1] (setting [3]), the Comments entry is reported as “Active”, the Log10 cell kill was 1.0, the “T-C” value stood at 3.8 days and the “Time for median tumor to reach 750 mg” value is recorded as 12.0 days. In [1] (setting [4]), the Comments result was “Active”, the Log10 cell kill turned out to be 1.9, the “T-C” value is listed as 6.9 days and the “Time for median tumor to reach 750 mg” value is reported as 15.1 days. Also, the Comments entry in series [1] (CPA i.v. 97.0 mg/kg/adm, days 3, 5, 7) is on record as “HNTD Highly Active”. For the same molecule, in [1] (setting [5]), the Log10 cell kill turned out to be 2.8, the “T-C” value stood at 10.3 days and the “Time for median tumor to reach 750 mg” value is 18.5 days. Further, in series [1] (setting [6]), the Comments result is “Toxic”, the Log10 cell kill result is “NTBA”, the “T-C (days)” value is reported as “NTBA” and the “Time for median tumor to reach 750 mg in days” value was “NTBA”. In addition, the “HNTD Dose” value with MA16/C, sc (cyclophosphamide, i.v. alone, days 3, 5, 7) was 291 mg/kg. For the same molecule, in the series with MA16/C, sc (cyclophosphamide, i.v. alone, days 3, 5, 7, at HNTD), the LCK came out at 2.8. Further, in the series on P388 (i.v.), the “sensitivity of the camptothecin sensitive cell line” value is “very sensitive” and the “%ILS” value is 245%.
As for `CC[C@@]1(O)C(=O)OCc2c1cc1n(c2=O)Cc2cc3ccccc3nc2-1` [CPT, camptothecin], the “%ILS” value in the series on P388/CPT (sc, highest non-toxic dose) is 0%; in the series on P388 (sc), 82%. Further, the Comment result in the series with P388/CPT (sc) is listed as “resistant”.
In series [2], `CCc1c2c(nc3ccc(OC(=O)N4CCC(N5CCCCC5)CC4)cc13)-c1cc3c(c(=O)n1C2)COC(=O)[C@]3(O)CC` [CPT-11, irinotecan] gave a body weight loss of 8.5%. Moreover, in series [2], the nadir is 7 days post last administration. In addition, the “%ILS” value in the series with P388/CPT (i.v., highest non-toxic dose) is reported as 0%; in the series with P388 (i.v.), 91%. The Comment entry with P388/CPT (i.v.) is listed as “resistant”. Also, the “Optimal Total Dose” value was determined as 228 mg/kg in the series on C26 (i.v., twice daily); 558 mg/kg in the series on C26 (oral, days 3-7, twice daily); 346.2 mg/kg in the series on GOS (i.v., days 3, 5, 7 twice daily); 900 mg/kg in the series with GOS (oral, days 3-7, twice daily); 130.5 mg/kg with MA16/C (i.v.); 230.5 mg/kg in the series with MA16/C (oral). Also, the “Optimal Total Dose” value in the series with C51 (i.v.) came to 615 mg/kg; in the series with C51 (oral) it was 845 mg/kg; in the series on P03 (i.v.), 346.2 mg/kg; in the series on P03 (oral) it was 900 mg/kg. Besides, the LCK in the series with C26 (i.v., twice daily) is reported as 0.7; in the series with C26 (oral, days 3-7, twice daily) it was 0.9; with GOS (i.v., days 3, 5, 7 twice daily), 2.2; in the series on GOS (oral, days 3-7, twice daily), 2.1; with MA16/C (i.v.) it was 2.6; with MA16/C (oral) it was 2.7. The LCK with MA16/C, sc (CPT-11, i.v. alone, days 3-7, at HNTD) is 2.0; in the series with C51 (i.v.), 3.0; with C51 (oral), 2.5; in the series with P03 (i.v.), 3.2†; with P03 (oral), 3.4†. The Comments entry in series [1] (setting [7]) is on record as “Active”; in series [1] (CPT-11 p.o. 40.0 mg/kg/adm, days 3-7), “HNTD Active”; in [1] (CPT-11 p.o. 64.0 mg/kg/adm, days 3-7) it was “Toxic”; in [1] (mouse, in vivo, po, 103 mg/kg), “Toxic”. Moreover, the results for the Log10 cell kill in series [1] (setting [7]) and in series [1] (setting [8]) were 1.1 and 2.0, respectively. Moreover, the “T-C” value came out at 4.1 days in series [1] (setting [7]) and 7.3 days in [1] (setting [8]). The “Time for median tumor to reach 750 mg” value in series [1] (setting [7]) was determined as 12.3 days; in [1] (setting [8]) it was 15.5 days. Further, in the series on MA16/C, sc (CPT-11, i.v. alone, days 3-7), the “HNTD Dose” value is reported as 200 mg/kg.
